This note sets out measurements from US10369133B2, “Immunosuppressive compounds and therapeutics” (UNIVERSITY OF TENNESSEE RESEARCH FOUNDATION, priority 2013, dated 2019).

In one experiment the test system is NF-κB. Description: NF-κB SEAP reporter gene assay in INS-1E cells. The following applies: printed "at 504" (FIG. 2B: 5 μM); cytokine cocktail 10 ng/mL TNFα, 5 ng/mL IL-1β, 10 ng/mL IFN-γ; 24 hours. Type of experiment: cell-based, rat. On the procedure: Briefly, a plasmid construct containing NF-kB promoter and SEAP gene was transferred into INS-1E cells by lipofectamine. SEAP was then expressed and secreted into culture supernatant and allowed […] detection using a substrate PNPP under 405 nm. […] NF-kB activity was measured 24 hours after addition of cytokine cocktail (10 ng/mL TNFα, 5 ng/mL IL-1β and 10 ng/mL IFN-γ) alone or with JP-3-110 (5 μM) or TNP (5 μM) or MPA (5 μM). Blank, no cytokine stimulation. Cyt, cytokine cocktail. Results are presented as the mean±S.D., n=3.
INS-1E cells which were stably transfected with the SEAP gene containing the response-element for NF-κB were used to screen for anti-inflammatory activity. Briefly, 10^6 cells/well were seeded overnight followed by treatment with 10 ng/mL human recombinant TNFα and either TNP or hybrid drug JP-3-110 (1 μM). SEAP activity was measured 18 h later in supernatant samples (50 µL) using the NF-κB SEAPorter™ Assay Kit (IMGENEX, San Diego, Calif.) and a microplate luminometer. SEAP activity was normalized to the total protein content.
For orientation: A reporter such as luciferase makes a cellular process visible.

Another experiment concerns human CD3+ T cells. The experiment is described as follows: Mixed lymphocyte reaction: proliferation of PHA-stimulated T cells. In kind it is cell-based. To be noted: data not shown; TNP 5 μM. Here is the method: Briefly, human peripheral blood mononuclear cells PBMCs were isolated from human buffy coat using Ficoll-Paque. […] Results are presented as the mean±S.D., n=6.
PBMCs were isolated using Ficoll Paque. T cells were isolated from PBMCs using Dynabeads for. T cells were stimulated with PHA (1 μg/ml) for 24 h alone or in the presence of TNP (5 μM) or JP-3-110 (5 μM) for additional 4 days. The total number of PBMCs was measured using T4 Automatic Cell Counter (Nexcelom, Lawrence, Mass.). The extent of T cell activation was determined by measuring the level of IL-2, IL-2sRa, TNFα and IFN-γ in the medium using ELISA at indicated time.
Mixed lymphocytes reaction was used to determine the immunosuppressive effects of MPA and JP-3-110. T cells were purified using dynabeads from peripheral blood mononuclear cells (PBMCs), which were initially isolated from human buffy coat (FIG. 8A). […] The levels of IL-2, IL-2sRa, TNFα and IFNγ were detected by ELISA to study the effects of JP-3-110 and MPA on T cell activation.

On to “(1S,3R,4S,5R)—N-butyl-1,3,4,5-tetrahydroxycyclohexane-1-carboxamide [TNP, reference compound]”, for which the “NF-κB activities in INS-1E cells” value in the experiment on NF-κB is reported as “significantly reduced”. For the same substance, the “immunosuppressive effect in mixed lymphocytes reaction” value in the experiment with human CD3+ T cells was “did not observe any immunosuppressive effect”.
